Key:
Test in all cases: relative viability (nuclei count vs DMSO), 5 days (fraction); higher = more cells survive
Pemetrexed + Crizotinib = compound: Nc1nc2[nH]cc(CCc3ccc(C(=O)N[C@@H](CCC(=O)O)C(=O)O)cc3)c2c(=O)[nH]1 [Pemetrexed] + C[C@@H](Oc1cc(-c2cnn(C3CCNCC3)c2)cnc1N)c1c(Cl)ccc(F)c1Cl [Crizotinib] (partner 1 µM)
Method in brief: (§1)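 Each reported value is a median over duplicate plates. It expresses relative viability: treated-well nuclei count divided by vehicle-well nuclei count. Lung cancer cell lines in 1536-well plates were dosed by pin tool a day after seeding, alone with one drug or with a fixed anchor-drug dose plus five library-drug doses (not always all listed) in √10 steps, and nuclei were counted after 5 days.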

Pemetrexed + Bortezomib = compound: Nc1nc2[nH]cc(CCc3ccc(C(=O)N[C@@H](CCC(=O)O)C(=O)O)cc3)c2c(=O)[nH]1 [Pemetrexed] + CC(C)C[C@H](NC(=O)[C@H](Cc1ccccc1)NC(=O)c1cnccn1)B(O)O [Bortezomib] (partner 0.002 µM)
Method in brief: as §1

Pemetrexed + Palbociclib = compound: Nc1nc2[nH]cc(CCc3ccc(C(=O)N[C@@H](CCC(=O)O)C(=O)O)cc3)c2c(=O)[nH]1 [Pemetrexed] + CC(=O)c1c(C)c2cnc(Nc3ccc(N4CCNCC4)cn3)nc2n(C2CCCC2)c1=O [Palbociclib] (partner 0.5 µM)
Method in brief: as §1

Idelalisib + Bortezomib = compound: CC[C@H](Nc1ncnc2[nH]cnc12)c1nc2cccc(F)c2c(=O)n1-c1ccccc1 [Idelalisib] + CC(C)C[C@H](NC(=O)[C@H](Cc1ccccc1)NC(=O)c1cnccn1)B(O)O [Bortezomib] (partner 0.002 µM)
Method in brief: as §1

Cell Line | relative viability (Pemetrexed + Crizotinib; first compound 0.002 µM) | relative viability (Pemetrexed + Crizotinib; first compound 0.006325 µM) | relative viability (Pemetrexed + Crizotinib; first compound 0.02 µM) | relative viability (Pemetrexed + Crizotinib; first compound 0.06325 µM) | relative viability (Pemetrexed + Crizotinib; first compound 0.2 µM) | relative viability (Pemetrexed + Bortezomib; first compound 0.002 µM) | relative viability (Pemetrexed + Bortezomib; first compound 0.006325 µM) | relative viability (Pemetrexed + Bortezomib; first compound 0.02 µM) | relative viability (Pemetrexed + Bortezomib; first compound 0.06325 µM) | relative viability (Pemetrexed + Bortezomib; first compound 0.2 µM) | relative viability (Pemetrexed + Palbociclib; first compound 0.002 µM) | relative viability (Pemetrexed + Palbociclib; first compound 0.006325 µM) | relative viability (Pemetrexed + Palbociclib; first compound 0.02 µM) | relative viability (Pemetrexed + Palbociclib; first compound 0.06325 µM) | relative viability (Pemetrexed + Palbociclib; first compound 0.2 µM) | relative viability (Idelalisib + Bortezomib; first compound 0.04 µM) | relative viability (Idelalisib + Bortezomib; first compound 0.1265 µM) | relative viability (Idelalisib + Bortezomib; first compound 1.265 µM) | relative viability (Idelalisib + Bortezomib; first compound 4 µM) | relative viability (Idelalisib + Bortezomib; first compound 0.4 µM)
NCI-H441 | 0.608 | 0.777 | 0.865 | 0.567 | 0.396 | 0.572 | 0.602 | 0.914 | 0.825 | 0.389 | 0.212 | 0.229 | 0.211 | 0.18 | 0.204 | 0.406 | 0.453 | 0.608 | 0.37 | –
NCI-H520 | 0.776 | 0.679 | 1.08 | 0.969 | 0.79 | 0.29 | 0.64 | 0.542 | 0.526 | 0.395 | 0.225 | 0.238 | 0.271 | 0.243 | 0.248 | 0.464 | 0.552 | 0.634 | 0.278 | 0.367
CAL-12T | 0.647 | 0.67 | 0.971 | 0.65 | 0.643 | 0.812 | 0.935 | 1.16 | 0.9 | 0.939 | 0.338 | 0.435 | 0.575 | 0.438 | 0.341 | 1.08 | 1.12 | 1.24 | 0.936 | 0.856
HCC-827 | 0.856 | 1.03 | 0.944 | 0.888 | 0.779 | 0.961 | 1.02 | 1.01 | 1.01 | 0.748 | 0.386 | 0.413 | 0.529 | 0.44 | 0.327 | 1.1 | 0.99 | 1.17 | 1.07 | 1.03
LC-2-ad | 0.425 | 0.473 | 0.457 | 0.263 | 0.29 | 0.981 | 1.01 | 1.02 | 0.215 | 0.148 | 0.452 | 0.501 | 0.524 | 0.431 | 0.404 | 1.02 | 0.971 | 1.11 | 0.992 | 0.938
NCI-H2170 | 1.3 | 1.03 | 1.1 | 1.2 | 1.09 | – | – | – | – | – | 0.371 | 0.396 | 0.435 | 0.416 | 0.378 | – | – | – | – | –
SK-MES-1 | 1.06 | 0.938 | 0.99 | 1.01 | 0.832 | – | – | – | – | – | 0.316 | 0.305 | 0.353 | 0.33 | 0.327 | – | – | – | – | –
NCI-H1648 | – | – | – | – | – | – | – | – | – | – | 0.255 | 0.24 | 0.24 | 0.282 | 0.302 | – | – | – | – | –
NCI-H1793 | – | – | – | – | – | – | – | – | – | – | 0.306 | 0.291 | 0.326 | 0.278 | 0.295 | – | – | – | – | –
NCI-H1299 | 0.962 | 0.942 | 0.98 | 0.881 | 0.927 | 1.02 | 1.01 | 1.03 | 1.03 | 0.987 | – | – | – | – | – | 1.03 | 1.03 | 1.09 | 1.03 | 1.02
Calu-6 | 0.814 | 0.754 | 0.922 | 0.72 | 0.68 | 0.963 | 0.937 | 1.01 | 0.971 | 0.942 | – | – | – | – | – | 1.13 | 0.991 | 1.02 | 1.07 | 0.937
SW 900 | – | – | – | – | – | – | – | – | – | – | 0.549 | 0.564 | 0.604 | 0.516 | 0.521 | – | – | – | – | –
LK-2 | – | 0.252 | 0.221 | 0.249 | 0.247 | – | – | – | – | – | 0.751 | 0.758 | 0.721 | 0.464 | 0.366 | – | – | – | – | –
NCI-H2342 | – | – | – | – | – | – | – | – | – | – | 0.494 | 0.505 | 0.57 | 0.514 | 0.521 | – | – | – | – | –
NCI-H522 | – | – | – | – | – | – | – | – | – | – | 1.22 | 0.82 | 1.09 | 0.985 | 0.843 | – | – | – | – | –
EBC-1 | 0.175 | 0.174 | 0.209 | 0.165 | 0.183 | 0.57 | 0.5 | 0.642 | 0.54 | 0.542 | – | – | – | – | – | 0.646 | 0.603 | 0.505 | 0.444 | 0.587
IA-LM | 0.807 | 0.665 | 0.772 | 0.804 | 0.634 | 0.81 | 0.82 | 0.943 | 0.695 | 0.641 | – | – | – | – | – | 0.987 | 0.847 | 0.88 | 0.889 | 0.956
NCI-H1703 | 0.687 | 0.566 | 0.763 | 0.628 | 0.739 | 0.277 | 0.224 | 0.605 | 0.248 | 0.271 | – | – | – | – | – | 0.305 | 0.404 | 0.332 | 0.161 | 0.246
NCI-H358 | 0.555 | 0.524 | 0.558 | 0.287 | 0.179 | – | – | – | – | – | 0.149 | 0.111 | 0.14 | 0.134 | 0.137 | – | – | – | – | –
A549 | 0.672 | 0.653 | 0.971 | 0.761 | 0.78 | – | – | – | – | – | – | – | – | – | – | – | – | – | – | –
NCI-H596 | 0.854 | 0.967 | 1.09 | 0.78 | 0.665 | 1.22 | 0.869 | 1.14 | 0.851 | 0.71 | – | – | – | – | – | 1 | 1.04 | 1.03 | 0.802 | 1
NCI-H1563 | 0.946 | 0.837 | 0.878 | 0.911 | 0.938 | 0.784 | 0.869 | 0.978 | 0.855 | 0.932 | – | – | – | – | – | 0.932 | 0.858 | 0.864 | 0.681 | 0.696
NCI-H1395 | – | – | – | – | – | – | – | – | – | – | 0.61 | 0.599 | 0.675 | 0.625 | 0.599 | – | – | – | – | –
NCI-H1944 | 0.911 | 1.02 | 1.19 | 1.11 | 1 | – | – | – | – | – | 0.286 | 0.304 | 0.339 | 0.312 | 0.343 | – | – | – | – | –

Source: the supplement of paper PMC10307832
